Where “and” joins values, the source holds several entries; their conditions need not be identical. Equal values may be shown once.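 Test compounds were applied to cells in 96-well plates for 48 hours at 5 doses. Abbreviation: GI50, concentration required for 50% inhibition of growth. TGI: total growth inhibition.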 A value given as a limit tells only on which side of the number the result lay.

Experimental findings from PubChem BioAssay (NCI) are described below.

Among the test systems are UO-31 renal; HCT-116 colon; DU-145 prostate; CCRF-CEM leukemia; SN12C renal; MOLT-4 leukemia; SK-MEL-28 melanoma; UACC-257 melanoma; MCF7 breast; T-47D breast.
What all share (assay): NCI-60 cell line screen, 48 h

For the compound `CN1CC2=C(NC(=S)NC2c2ccccc2)/C(=C/c2ccccc2)C1` (stereo unspecified), the TGI is more than 100 µM in the test on UO-31 renal; 63.3 µM in the test with HCT-116 colon; more than 100 µM with DU-145 prostate; more than 100 µM in the test on CCRF-CEM leukemia; more than 100 µM in the test with SN12C renal; 44.7 µM in the test on MOLT-4 leukemia. In addition, the TGI in the test with SK-MEL-28 melanoma is 94.3 µM; in the test on UACC-257 melanoma, more than 100 µM; with MCF7 breast it was more than 100 µM; with T-47D breast, more than 100 µM.

For `C=C(C)CC1(O[Si](C)(C)C)C(=O)C(OCC)=C1OCC` (stereo unspecified), the TGI with UO-31 renal, in the test with HCT-116 colon, in the test with DU-145 prostate, with CCRF-CEM leukemia, with SN12C renal and in the test on MOLT-4 leukemia was more than 100 µM each time. The TGI with SK-MEL-28 melanoma, with UACC-257 melanoma, in the test on MCF7 breast and in the test on T-47D breast was more than 100 µM throughout.

For the compound `CC(C)=CCNc1nc(Cl)nc2nc[nH]c12`, the TGI in the test with UO-31 renal was more than 100 µM; with HCT-116 colon it was 69.8 µM; in the test on DU-145 prostate it was more than 100 µM; in the test on CCRF-CEM leukemia, more than 100 µM; in the test with SN12C renal, more than 100 µM; in the test on MOLT-4 leukemia, more than 100 µM. In addition, the TGI with SK-MEL-28 melanoma, with UACC-257 melanoma, with MCF7 breast and in the test with T-47D breast was more than 100 µM throughout.

Consider `O=C(O)COc1cc(-c2ccccc2)nc2cc(F)ccc12`, for which the TGI with UO-31 renal, with HCT-116 colon, in the test with DU-145 prostate, in the test on CCRF-CEM leukemia, in the test on SN12C renal and in the test on MOLT-4 leukemia was more than 100 µM each time. Besides, the TGI in the test with SK-MEL-28 melanoma, in the test on UACC-257 melanoma, in the test with MCF7 breast and in the test on T-47D breast was more than 100 µM throughout.

In the case of `CCCCCCCCCCCCCCCCCCNc1nc(=O)n(C2CC(O)C(COP(=O)(O)O)O2)cc1F` (stereo unspecified), the TGI in the test with UO-31 renal is more than 100 µM; in the test on HCT-116 colon, more than 100 µM; in the test with DU-145 prostate, more than 100 µM; in the test on CCRF-CEM leukemia, 81.2 µM; with SN12C renal it was more than 100 µM; with MOLT-4 leukemia it was more than 96.1 µM. Further, the TGI in the test with SK-MEL-28 melanoma, in the test on UACC-257 melanoma, with MCF7 breast and in the test on T-47D breast was more than 100 µM throughout.

In the case of `CC1=C2C(=CO[C@H](C)[C@H]2C)C(=O)C(C(=O)O)=C1O`, the GI50 is 22.3 µM in the test on UO-31 renal; 27.7 µM in the test with CCRF-CEM leukemia; 9.07 µM with SN12C renal; 34.1 µM with MOLT-4 leukemia; 23.9 µM with SK-MEL-28 melanoma; 24.5 µM in the test with MCF7 breast. For the same compound, the TGI is 106 µM and 50.6 µM in the test on UO-31 renal; 82.2 µM and 78.5 µM with HCT-116 colon; 68.3 µM in the test on DU-145 prostate; > 88.7 µM and 45.9 µM with CCRF-CEM leukemia; 54.8 µM and 26.2 µM with SN12C renal; 40 µM and > 93.6 µM with MOLT-4 leukemia. Further, the TGI was 93.5 µM and 54.9 µM in the test on SK-MEL-28 melanoma; more than 87.8 µM in the test with UACC-257 melanoma; 52.8 µM and 51.9 µM in the test on MCF7 breast; more than 94.5 µM in the test with T-47D breast.

Take `NCC(O)CSCc1ccc(Cl)cc1` (stereo unspecified): the TGI in the test with UO-31 renal, with HCT-116 colon, in the test on DU-145 prostate, in the test with CCRF-CEM leukemia, in the test with SN12C renal and in the test on MOLT-4 leukemia was more than 100 µM throughout. The TGI in the test with SK-MEL-28 melanoma, with UACC-257 melanoma, in the test with MCF7 breast and in the test on T-47D breast was more than 100 µM throughout.

On to `CCOC(=O)c1cc2c([N+](=O)[O-])c(N)ccc2s1`, for which the TGI in the test with UO-31 renal, in the test with HCT-116 colon, in the test on DU-145 prostate, in the test on CCRF-CEM leukemia, in the test on SN12C renal and in the test with MOLT-4 leukemia was more than 100 µM throughout. In addition, the TGI in the test on SK-MEL-28 melanoma, in the test with UACC-257 melanoma, with MCF7 breast and in the test on T-47D breast was more than 100 µM throughout.
